For test [1], the target named is T1, Y2 (Homo sapiens, UniProt P49146).
T1 construct: host or cells: U2OS
T1 sequence (P49146 1-381): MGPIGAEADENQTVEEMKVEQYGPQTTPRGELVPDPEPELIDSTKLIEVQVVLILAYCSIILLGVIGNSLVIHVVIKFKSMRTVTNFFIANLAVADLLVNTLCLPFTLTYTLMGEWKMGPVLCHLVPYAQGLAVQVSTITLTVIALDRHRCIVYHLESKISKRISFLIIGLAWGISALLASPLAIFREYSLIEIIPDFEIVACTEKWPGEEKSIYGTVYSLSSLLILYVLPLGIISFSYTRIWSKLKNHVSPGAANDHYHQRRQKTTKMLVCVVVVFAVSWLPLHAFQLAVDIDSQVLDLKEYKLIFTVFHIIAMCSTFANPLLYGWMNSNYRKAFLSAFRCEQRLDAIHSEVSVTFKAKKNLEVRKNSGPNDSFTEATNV
Nature of the test: Competitive and saturation binding, [^125I]-PYY, U2OS cells with Y2. The protocol: (§1) Competition binding experiments were performed according to [45]. […] Binding experiments using U2OS cells were optimized and performed in assay buffer (50 mM Tris-Cl pH 7.4, 118 mM NaCl, 5 mM MgCl2, 4.7 mM KCl, 0.1% BSA) for cells stably expressing GHSR and (25 mM HEPES, 120 mM NaCl, 5 mM MgCl2, 4.7 mM KCl, 1 mM CaCl2, 0.5% BSA, 2 g/L glucose) for cells containing receptors Y1, Y2 and Y5. […] Cells were incubated for 60 min at room temperature (RT).
(§2) Experiments were carried out in duplicate at least three times, and Ki was calculated using the Cheng-Prusoff equation.
(§3) Data were analyzed by GraphPad Software (San Diego, CA, USA) and are presented as the means ± SEM. The saturation and competitive binding experiments were analyzed according to [46] using the Cheng-Prusoff equation [33]. The competitive binding curves were plotted compared to the best fit for single-binding site models, and half maximal inhibitory concentration (IC50) values were obtained from nonlinear regression analysis. From saturation binding experiments, the dissociation constant (Kd) and number of binding sites/cell (Bmax) were calculated. Inhibition constants (Ki) were calculated from IC50 values, Kd and the concentration of radioligands.

Test [2] addresses T2, NPFF-R2 (Homo sapiens, UniProt Q9Y5X5).
T2 construct: host or cells: CHO-K1 (AequoScreen, co-expressing aequorin)
Nature of the test: Competitive binding, [^125I]-1DMe, membranes of CHO-K1 cells with NPFF-R2. On the procedure: (§4) Pellets of CHO-K1 cells containing NPFF-R2, NPFF-R1 and KOR receptors were homogenized in ice-cold homogenizing buffer (20 mM HEPES pH 7.1, 5 mM MgCl2, 0.7 mM bacitracin) with a DIAX 100 Homogenizer (Heidolph Instruments, Schwabach, Germany) and centrifuged in an ultracentrifuge (Beckman Coulter, Fullerton, CA, USA) at 26,000× g for 15 min at 4 °C. The pellets were homogenized in ice-cold homogenization buffer, and the previous steps were repeated 2 more times. After the third centrifugation, pellets were resuspended in ice-cold storage buffer (50 mM Tris-Cl pH 7.4, 0.5 mM EDTA, 10 mM MgCl2, 10% sucrose), and aliquots were stored at −80 °C. The concentration of isolated membrane proteins was determined by a PierceTM BCA Protein Assay Kit (Pierce, Rockford, IL, USA). […]
as §2
(§5) Data were analyzed by GraphPad Software (San Diego, CA, USA) and are presented as the means ± SEM. The saturation and competitive binding experiments were analyzed according to [46] using the Cheng-Prusoff equation [33]. […] From saturation binding experiments, the dissociation constant (Kd) and number of binding sites/cell (Bmax) were calculated. Inhibition constants (Ki) were calculated from IC50 values, Kd and the concentration of radioligands.

For test [3], the target named is T3, GHSR (Homo sapiens, UniProt Q92847).
T3 construct: host or cells: U2OS
Kind of test: Competitive and saturation binding, [^125I]-ghrelin, U2OS cells with GHSR. On the procedure:
as §1, §2, §3

The target of test [4] is T4, Y1 (Homo sapiens, UniProt P25929).
T4 construct: host or cells: U2OS
T4 sequence (P25929 1-384): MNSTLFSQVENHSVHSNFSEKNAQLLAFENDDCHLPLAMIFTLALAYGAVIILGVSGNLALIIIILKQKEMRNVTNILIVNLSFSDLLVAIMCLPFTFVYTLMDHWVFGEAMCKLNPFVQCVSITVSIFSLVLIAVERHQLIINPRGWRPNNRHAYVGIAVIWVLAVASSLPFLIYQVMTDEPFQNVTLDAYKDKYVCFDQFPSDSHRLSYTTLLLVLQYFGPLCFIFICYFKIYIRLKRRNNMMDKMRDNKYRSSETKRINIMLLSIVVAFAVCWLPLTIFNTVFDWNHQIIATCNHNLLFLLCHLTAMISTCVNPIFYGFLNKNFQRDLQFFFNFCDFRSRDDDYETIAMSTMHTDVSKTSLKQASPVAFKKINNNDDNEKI
Kind of test: Competitive and saturation binding, [^125I]-PYY, U2OS cells with Y1. On the procedure: as §1, §2, §3

For test [5], the target named is T5, KOR (Homo sapiens, UniProt P41145).
T5 construct: host or cells: CHO-K1
Kind of test: Competitive and saturation binding, [^125I]-dynorphin, membranes of CHO-K1 cells with KOR. The following applies: competition with [^125I]-dynorphin A, CHO-K1 membranes 5 µg protein/tube, 60 min RT; mean ± SEM, 2–5 independent experiments in duplicates; Cheng-Prusoff. The protocol: as §4, §2, §5

For test [6], the target named is T6, DOR (Homo sapiens, UniProt P41143).
T6 construct: host or cells: U2OS
Nature of the test: Beta-lactamase reporter gene assay (FRET), DOR. Particulars: β-lactamase assay, agonist mode, U2OS cells; mean ± SEM, 2–3 independent experiments in duplicates. The format is cell-based.

Test [7] deals with T7, ORL-1 (Homo sapiens, UniProt P41146).
T7 construct: host or cells: U2OS
Nature of the test: Beta-lactamase reporter gene assay (FRET), ORL-1. Format: cell-based. Particulars: β-lactamase assay, agonist mode, U2OS cells; mean ± SEM, 2–3 independent experiments in duplicates.

The target of test [8] is T8, Y5 (Homo sapiens, UniProt Q15761).
T8 construct: host or cells: U2OS
T8 sequence (Q15761 1-445): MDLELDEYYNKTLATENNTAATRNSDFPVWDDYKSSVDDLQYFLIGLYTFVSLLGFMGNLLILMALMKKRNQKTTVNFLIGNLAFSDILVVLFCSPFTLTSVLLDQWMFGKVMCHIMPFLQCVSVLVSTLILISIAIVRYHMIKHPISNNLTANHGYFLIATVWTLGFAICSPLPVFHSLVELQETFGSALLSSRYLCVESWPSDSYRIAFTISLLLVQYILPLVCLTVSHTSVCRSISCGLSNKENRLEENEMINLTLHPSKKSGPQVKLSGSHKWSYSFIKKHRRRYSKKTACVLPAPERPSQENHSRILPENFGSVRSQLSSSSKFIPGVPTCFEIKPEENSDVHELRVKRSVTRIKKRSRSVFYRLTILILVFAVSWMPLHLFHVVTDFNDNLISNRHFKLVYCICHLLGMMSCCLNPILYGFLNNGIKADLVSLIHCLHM
Kind of test: Beta-lactamase reporter gene assay (FRET), Y5. The format is cell-based.

The target in test [9] is T8, Y5. Kind of test: Competitive and saturation binding, [^125I]-PYY, U2OS cells with Y5. The protocol: as §1, §2, §3

Our source for the Ki and EC50 values is article PMC8396344, “Palmitoylation of Prolactin-Releasing Peptide Increased Affinity for and Activation of the GPR10, NPFF-R2 and NPFF-R1 Receptors: In Vitro Study” (International Journal of Molecular Sciences, 2021).

No end group written: not given here. Bounds are passed on as bounds.

For `CCCCCCCCCCCCCCCC(=O)N[C@@H](CO)C(=O)N[C@@H](CCCNC(=N)N)C(=O)N[C@H](C(=O)N[C@@H](Cc1c[nH]cn1)C(=O)N[C@@H](CCCNC(=N)N)C(=O)N[C@@H](Cc1c[nH]cn1)C(=O)N[C@@H](CO)C(=O)N[C@@H](CCSC)C(=O)N[C@@H](CCC(=O)O)C(=O)N[C@H](C(=O)N[C@@H](CCCNC(=N)N)C(=O)N[C@H](C(=O)N1CCC[C@H]1C(=O)N[C@@H](CC(=O)O)C(=O)N[C@H](C(=O)N[C@@H](CC(N)=O)C(=O)N1CCC[C@H]1C(=O)N[C@@H](C)C(=O)N[C@@H](Cc1c[nH]c2ccccc12)C(=O)N[C@@H](Cc1ccc(O)cc1)C(=O)N[C@@H](C)C(=O)N[C@@H](CO)C(=O)N[C@@H](CCCNC(=N)N)C(=O)NCC(=O)N[C@H](C(=O)N[C@@H](CCCNC(=N)N)C(=O)N1CCC[C@H]1C(=O)N[C@H](C(=O)NCC(=O)N[C@@H](CCCNC(=N)N)C(=O)N[C@@H](Cc1ccccc1)C(N)=O)C(C)C)[C@@H](C)CC)[C@@H](C)CC)[C@@H](C)O)[C@@H](C)CC)[C@@H](C)O` [Palm-PrRP31], the inhibition constant Ki in test [1] was > 10 µM; in [2] it was 0.77 ± 0.19 nM; in [3], 160 ± 16 nM; in [4] it was 3.147 ± 0.031 µM; in test [5], 106 ± 15 nM; in test [9] it was 32.6 ± 6.16 nM. Also, the concentration giving a half-maximal response (EC50) in test [6] was > 10 µM; in test [7], > 10 µM; in test [8], 56.5 ± 18.4 nM.

Turning to “SRAHQHSMETRTPDINPAWYTGRGIRPVGRF-NH2 [PrRP31, prolactin-releasing peptide 31, reference compound]”, the Ki in [1] is > 10 µM; in [2], 26.7 ± 9.01 nM; in [3] it was > 10000 nM; in test [4] it was > 10 µM; in test [5], > 10000 nM; in test [9], 2860 ± 43 nM. The EC50 in test [6] was > 10 µM; in test [7], > 10 µM; in [8] it was > 10000 nM.
